Patent US7384787B2, “Increasing perhydrolase activity in esterases and/or lipases” (Regents of the University of Minnesota, priority 2005, dated 2008)
Read-outs that look alike come from different tables or passages of the source.

Tests used:
[1] = biological target: T1, Pseudomonas fluorescens aryl esterase (PFE) variant Leu29Pro (parent SEQ ID NO:3) (Pseudomonas fluorescens, UniProt P22862, L30P)
T1 sequence (P22862 1-272 L30P): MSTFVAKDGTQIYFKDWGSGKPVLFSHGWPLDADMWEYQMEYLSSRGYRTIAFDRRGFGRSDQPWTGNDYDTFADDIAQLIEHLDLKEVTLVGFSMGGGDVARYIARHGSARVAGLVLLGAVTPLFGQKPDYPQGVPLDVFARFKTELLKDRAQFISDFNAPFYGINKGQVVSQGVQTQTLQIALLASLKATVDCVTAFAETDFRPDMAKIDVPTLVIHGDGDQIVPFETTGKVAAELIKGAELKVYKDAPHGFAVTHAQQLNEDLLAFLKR
Experimental: (§1) Activity assays were performed in quadruplicates on 96-well microtiter plates with a reaction volume of 100 μl (90 μl assay solution to 10 μl enzyme in 5 mM BES pH 7.2). The path-length for light through the well was 0.29 cm.
(§2) The monochlorodimedon (MCD) assay (Hager et al., 1966, J. Biol. Chem., 241:1769-1777) was used to detect peracid formation. Each reaction contained MCD (0.18 mM), H2O2 (90 mM), NaBr (90 mM) in acetate buffer (1 M, pH 5.5) at 25° C. The reaction was followed spectrophotometrically at 290 nm in UV-transparent microtiter plates (ε=19.9×10^3 M^−1 cm^−1).
(§3) An estimate of kinetic parameters was also obtained for hydrogen peroxide in wild-type and Leu29Pro. The hydrogen peroxide in wild-type was 5, 10, 20, 50, 100, and 200 mM; for Leu29Pro, the concentrations were 5, 10, 20, 35, 50, 121, 152, and 200 mM.

[2] = biological target: T2, Pseudomonas fluorescens aryl esterase (PFE), wild-type, SEQ ID NO:3 (Pseudomonas fluorescens, UniProt P22862)
T2 sequence (P22862 1-272): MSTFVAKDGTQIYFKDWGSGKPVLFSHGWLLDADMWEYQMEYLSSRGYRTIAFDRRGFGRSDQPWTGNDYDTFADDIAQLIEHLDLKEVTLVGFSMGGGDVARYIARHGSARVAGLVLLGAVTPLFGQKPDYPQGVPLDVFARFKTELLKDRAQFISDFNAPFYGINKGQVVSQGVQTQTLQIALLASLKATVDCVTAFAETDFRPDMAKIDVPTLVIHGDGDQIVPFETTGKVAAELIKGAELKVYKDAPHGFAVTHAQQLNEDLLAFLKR
Experimental: as §1, §2, §3

[3] = biological target: T1, Pseudomonas fluorescens aryl esterase (PFE) variant Leu29Pro (parent SEQ ID NO:3); assay: Kinetics of p-nitrophenyl acetate hydrolysis, Leu29Pro PFE; format: biochemical; parameters: expressed as in Cheeseman et al. 2004
Experimental: (§4) The p-nitrophenyl acetate (pNPAc) assay contained pNPAc (0.3 mM) and 8% acetonitrile as co-solvent in BES buffer (5 mM, pH 7.2). The reaction was monitored spectrophotometrically at 404 nm (ε=11.4·10 ^3 M^−1 cm^−1). A pH-indicator assay was used to assay substrates without inherent light absorbing properties (Janes et al., 1998, Chem. Eur. J. 4:2324-2331). The reactions were carried out in BES buffer (5 mM, pH 7.2) containing p-nitrophenol. As hydrolysis progresses, protons add to the p-nitrophenolate and the course of reaction can be monitored as a decrease in absorbance at 404 nm (ε=16.5·10^3 M^−1 cm^−1). This provides a good estimate of reaction rates, but is limited to substrates containing only one possible acid-functionality, as several would interfere with the pH indicator.
(§5) Kinetic parameters for hydrolysis of pNPAc in wild-type and Leu29Pro were carried out with pNPAc at 0.1, 0.2, 0.5, 1.0, 2.0, 4.0, and 10 mM under otherwise identical conditions as for the pNPAc-assay. Solubility problems limited higher substrate concentrations than 10 mM. Data points were fitted by non-linear regression using OriginPro 7.5 SR1 v7.5776 (OriginLab Corporation, Northampton, Mass.) with a hyperbola function of basic equation y=P1*x/(P2+x), where x is the substrate concentration (mM), P1 corresponds to Vmax (μmol min^−1 mg^−1 or U/mg), and P2 corresponds to KM (mM). R^2-values for were 0.992 and 0.997 for wild-type and Leu29Pro, respectively.

[4] = substrate: CC(=O)Oc1ccc([N+](=O)[O-])cc1; assay: Kinetics of p-nitrophenyl acetate hydrolysis, wild-type PFE; format: biochemical, Pseudomonas fluorescens; conditions: other: hydrolysis of pNPAc 0.1-10 mM, 5 mM BES pH 7.2, 8% acetonitrile
Experimental: as §4, §5

[5] = substrate: CC(=O)Oc1ccc([N+](=O)[O-])cc1; assay: Kinetics of p-nitrophenyl acetate hydrolysis, Leu29Pro PFE; format: biochemical, Pseudomonas fluorescens; conditions: other: hydrolysis of pNPAc 0.1-10 mM, 5 mM BES pH 7.2, 8% acetonitrile
Experimental: as §4, §5

[6] = perhydrolysis, H2O2 5-200 mM, 1 M acetate pH 5.5, 25° C., Leu29Pro
[7] = perhydrolysis, H2O2 5-200 mM, 1 M acetate pH 5.5, 25° C.

**Q.** Which “fold increase in Vmax for perhydrolysis” value ([1]; Leu29Pro vs wild-type) does the source give for `OO` [H2O2, hydrogen peroxide] here?
**A.** 50 fold

**Q.** And the “fold increase in catalytic efficiency (Vmax/KM) for perhydrolysis of acetic acid” value ([1]; Leu29Pro vs wild-type)?
**A.** 14 fold

**Q.** What about the “increase in Km for hydrogen peroxide” value ([1]; Leu29Pro vs wild-type) of the same molecule?
**A.** three-fold

**Q.** What about the Vmax/KM ([1]; perhydrolysis of acetic acid, H2O2, Leu29Pro) of the same molecule?
**A.** 180 U mg^−1 M^−1

**Q.** What about the Km [1, 6] of the same molecule?
**A.** 58 mM

**Q.** And the Vmax [1, 6]?
**A.** 11 ± 1 U mg^−1

**Q.** What about the Vmax ([1]; perhydrolysis, H2O2 5-200 mM, 1 M acetate pH 5.5, 25° C., Leu29Pro, listed as hydrogen peroxide) of the same molecule?
**A.** 11 U mg^−1

**Q.** And the Vmax/KM ([2]; perhydrolysis of acetic acid, H2O2)?
**A.** 13 U mg^−1 M^−1

**Q.** And the Km [2, 7]?
**A.** 17 mM

**Q.** And the Vmax [2, 7]?
**A.** 0.22 ± 0.02 U mg^−1

**Q.** What about the Vmax ([2]; perhydrolysis, H2O2 5-200 mM, 1 M acetate pH 5.5, 25° C., listed as hydrogen peroxide) of the same molecule?
**A.** 0.22 U mg^−1

**Q.** Which “fold decrease in Vmax for hydrolysis of pNPAc” value ([3]; Leu29Pro vs wild-type) does the source give for `CC(=O)Oc1ccc([N+](=O)[O-])cc1` [pNPAc, p-nitrophenyl acetate] here?
**A.** 50 fold

**Q.** And the “increase in KM for pNPAc” value ([3]; Leu29Pro vs wild-type)?
**A.** three-fold

**Q.** And the “fold change in catalytic efficiency (Vmax/KM) for hydrolysis of pNPAc” value ([3]; Leu29Pro vs wild-type (decrease))?
**A.** 165 fold

B1: Pseudomonas fluorescens aryl esterase (PFE), wild-type, SEQ ID NO:3 (Pseudomonas fluorescens) (protein)
chain: MSTFVAKDGTQIYFKDWGSGKPVLFSHGWLLDADMWEYQMEYLSSRGYRTIAFDRRGFGRSDQPWTGNDYDTFADDIAQLIEHLDLKEVTLVGFSMGGGDVARYIARHGSARVAGLVLLGAVTPLFGQKPDYPQGVPLDVFARFKTELLKDRAQFISDFNAPFYGINKGQVVSQGVQTQTLQIALLASLKATVDCVTAFAETDFRPDMAKIDVPTLVIHGDGDQIVPFETTGKVAAELIKGAELKVYKDAPHGFAVTHAQQLNEDLLAFLKR
notes: expressed as in Cheeseman et al. 2004
**Q.** Which Km [4] does the source give for B1 here?
**A.** 2.8 ± 0.4 mM

**Q.** And the Vmax [4]?
**A.** 143 µmol/min/mg

**Q.** What about the Vmax/Km [4] of the same molecule?
**A.** 51000 µL/min/mg

B2: Pseudomonas fluorescens aryl esterase (PFE) variant Leu29Pro (parent SEQ ID NO:3) (Pseudomonas fluorescens; L30P) (protein)
chain: MSTFVAKDGTQIYFKDWGSGKPVLFSHGWPLDADMWEYQMEYLSSRGYRTIAFDRRGFGRSDQPWTGNDYDTFADDIAQLIEHLDLKEVTLVGFSMGGGDVARYIARHGSARVAGLVLLGAVTPLFGQKPDYPQGVPLDVFARFKTELLKDRAQFISDFNAPFYGINKGQVVSQGVQTQTLQIALLASLKATVDCVTAFAETDFRPDMAKIDVPTLVIHGDGDQIVPFETTGKVAAELIKGAELKVYKDAPHGFAVTHAQQLNEDLLAFLKR
notes: as for B1
**Q.** Which results are given for B2?
**A.** Km [5]: 8.9 ± 1.1 mM; Vmax [5]: 2.8 µmol/min/mg; Vmax/Km [5]: 310 µL/min/mg
